Type in all cases: functional
The subject of test [1] is Streptococcus pneumoniae. The test can be described thus: In vitro antibacterial activity against penicillin sensitive Streptococcus pneumoniae UC 9912.
In test [2] the test system is Mus musculus. Nature of the test: In vivo efficacy to protect the Staphylococcus aureus infected mouse and the activity was reported using Linezolid as a control with ED50 = 3.5.
Test [3] concerns Staphylococcus aureus. The test can be described thus: In vitro antibacterial activity against methicillin susceptible Staphylococcus aureus UC 9213 (MSSA).
Test [4] has as its system Haemophilus influenzae. The test can be described thus: In vitro antibacterial activity against ampicillin resistant Haemophilus influenzae 30063 (B-lactamase +).
In test [5] the test system is Staphylococcus aureus. The test can be described thus: In vitro antibacterial activity against methicillin resistant Staphylococcus aureus UC 12673 (MRSA).
The subject of test [6] is Enterococcus faecalis. The test can be described thus: In vitro antibacterial activity against vancomycin resistant Enterococcus faecalis UC 9217 (VREA).
The subject of test [7] is Moraxella catarrhalis. Nature of the test: In vitro antibacterial activity against Moraxella catarrhalis 30607.
Test [8] has as its system Staphylococcus epidermidis. The test can be described thus: In vitro antibacterial activity against methicillin resistant Staphylococcus epidermidis UC 12084.
The test system of test [9] is Mus musculus. The test can be described thus: In vivo efficacy to protect the Staphylococcus aureus infected mouse and the activity was reported using Linezolid as a control with ED50 = 5.
Test [10] deals with Mus musculus. Nature of the test: In vivo efficacy to protect the Staphylococcus aureus infected mouse and the activity was reported using Linezolid as a control with ED50 = 3.8.

In brackets after ≈: the same amount, converted by molar mass.

Broadly, the ED50 is the dose that gives a 50% effect, or the effect in half of the subjects. Read a low ED50 as greater potency. Turning to `CC(=O)NC[C@H]1CN(c2ccc(-c3nnc(CC(N)=O)s3)c(F)c2)C(=O)O1`, the MIC in test [1] was less than 0.125 µg/mL; in test [3], 4 µg/mL (≈ 10.2 µM); in test [4] it was 4 µg/mL (≈ 10.2 µM); in [5] it was 4 µg/mL (≈ 10.2 µM); in test [6], 2 µg/mL (≈ 5.08 µM); in test [7], 8 µg/mL (≈ 20.3 µM). In addition, the MIC in test [8] stood at 0.5 µg/mL (≈ 1.27 µM). Further, the ED50 in [2] is more than 20 mg/kg.
With `CNCc1nnc(-c2ccc(N3C[C@H](CNC(C)=O)OC3=O)cc2F)s1`, the MIC is less than 0.5 µg/mL in test [1]; 4 µg/mL (≈ 10.5 µM) in [3]; 4 µg/mL (≈ 10.5 µM) in test [4]; 4 µg/mL (≈ 10.5 µM) in test [5]; 2 µg/mL (≈ 5.27 µM) in [6]; 4 µg/mL (≈ 10.5 µM) in test [7]. The compound also came in with an MIC in test [8] of 1 µg/mL (≈ 2.64 µM).
`CSCc1nnc(-c2ccc(N3C[C@H](CNC(C)=O)OC3=O)cc2F)s1`: the MIC in [1] was 0.25 µg/mL (≈ 0.631 µM); in test [3] it was 1 µg/mL (≈ 2.52 µM); in test [4], more than 16 µg/mL; in [5] it was 1 µg/mL (≈ 2.52 µM); in [6] it was 1 µg/mL (≈ 2.52 µM); in test [7] it was 4 µg/mL (≈ 10.1 µM). The MIC in test [8] was determined as 0.25 µg/mL (≈ 0.631 µM).
For the compound `CC(=O)NC[C@H]1CN(c2ccc(-c3nnc(C)s3)c(F)c2)C(=O)O1`, the MIC in [1] was less than 0.125 µg/mL; in test [3] it was 1 µg/mL (≈ 2.85 µM); in test [4], 2 µg/mL (≈ 5.71 µM); in [5], 0.5 µg/mL (≈ 1.43 µM); in [6] it was 0.5 µg/mL (≈ 1.43 µM); in test [7], 2 µg/mL (≈ 5.71 µM). In [8], this compound showed an MIC of less than 0.125 µg/mL. In addition, it took a dose of 6.2 mg/kg to reach the 50% effect level in test [2] (ED50).
For `C/C(S)=N/C[C@H]1CN(c2ccc(-c3nnc(CS(C)(=O)=O)s3)c(F)c2)C(=O)O1`, the MIC in test [1] was 0.06 µg/mL (≈ 0.135 µM); in test [3], 0.25 µg/mL (≈ 0.562 µM); in [4], 2 µg/mL (≈ 4.5 µM); in [5], 0.5 µg/mL (≈ 1.12 µM); in test [6] it was 0.25 µg/mL (≈ 0.562 µM); in test [7], 0.5 µg/mL (≈ 1.12 µM). This compound returned an MIC in [8] of 0.25 µg/mL (≈ 0.562 µM). This compound also gave an ED50 in test [9] of more than 20 mg/kg.
As for `CC(=O)NC[C@H]1CN(c2ccc(-c3nnc(CS(C)(=O)=O)s3)c(F)c2)C(=O)O1`, the MIC was less than 0.5 µg/mL in test [1]; 4 µg/mL (≈ 9.34 µM) in [3]; 4 µg/mL (≈ 9.34 µM) in [4]; 4 µg/mL (≈ 9.34 µM) in test [5]; 2 µg/mL (≈ 4.67 µM) in test [6]; 4 µg/mL (≈ 9.34 µM) in test [7]. Further, the MIC in [8] was 1 µg/mL (≈ 2.33 µM).
In the case of `CC(=O)NC[C@H]1CN(c2ccc(-c3nnc(O)s3)c(F)c2)C(=O)O1`, the MIC was 0.125 µg/mL (≈ 0.355 µM) in test [1]; 1 µg/mL (≈ 2.84 µM) in [3]; 4 µg/mL (≈ 11.4 µM) in test [4]; 1 µg/mL (≈ 2.84 µM) in test [5]; 1 µg/mL (≈ 2.84 µM) in [6]; 4 µg/mL (≈ 11.4 µM) in test [7]. This compound also had an MIC in test [8] of 0.5 µg/mL (≈ 1.42 µM). The compound further came in with a median effective dose (ED50) in test [10] of 13 mg/kg.
For the compound `CC(=O)NC[C@H]1CN(c2ccc(-c3nnc(CC/C(C)=N/O)s3)c(F)c2)C(=O)O1`, the MIC in [1] was less than 0.125 µg/mL; in test [3] it was 2 µg/mL (≈ 4.75 µM); in [4] it was 4 µg/mL (≈ 9.49 µM); in test [5], 2 µg/mL (≈ 4.75 µM); in [6], 1 µg/mL (≈ 2.37 µM); in [7], 4 µg/mL (≈ 9.49 µM). Besides, the MIC in test [8] was determined as 0.5 µg/mL (≈ 1.19 µM). The compound also returned an ED50 in test [9] of more than 20 mg/kg.
As to `CCOC(=O)c1nnc(-c2ccc(N3C[C@H](CNC(C)=O)OC3=O)cc2F)s1`, the MIC in [1] is less than 0.125 µg/mL; in test [3] it was 8 µg/mL (≈ 19.6 µM); in [4], more than 16 µg/mL; in test [5] it was 8 µg/mL (≈ 19.6 µM); in [6] it was 8 µg/mL (≈ 19.6 µM); in test [7], 16 µg/mL (≈ 39.2 µM). This compound also came in with an MIC in [8] of 2 µg/mL (≈ 4.9 µM).
As for `CC(=O)NC[C@H]1CN(c2ccc(-c3nnc(C[S+](C)[O-])s3)c(F)c2)C(=O)O1` (stereo partly drawn), the MIC in [1] is 0.25 µg/mL (≈ 0.606 µM); in [3], 8 µg/mL (≈ 19.4 µM); in test [4], 8 µg/mL (≈ 19.4 µM); in [5], 8 µg/mL (≈ 19.4 µM); in test [6] it was 4 µg/mL (≈ 9.7 µM); in test [7] it was 8 µg/mL (≈ 19.4 µM). In [8], this compound gave an MIC of 0.5 µg/mL (≈ 1.21 µM).
Turning to `CCc1nnc(-c2ccc(N3C[C@H](CNC(C)=O)OC3=O)cc2F)s1`, the MIC in test [1] worked out at 0.25 µg/mL (≈ 0.686 µM); in test [3], 1 µg/mL (≈ 2.74 µM); in test [4], 4 µg/mL (≈ 11 µM); in test [5], 0.5 µg/mL (≈ 1.37 µM); in test [6] it was 0.5 µg/mL (≈ 1.37 µM); in test [7], 2 µg/mL (≈ 5.49 µM). The compound further yielded an MIC in [8] of 0.25 µg/mL (≈ 0.686 µM). The compound further came in with an ED50 in test [10] of 9.2 mg/kg.

The record behind these values is ChEMBL document CHEMBL1136455, “The synthesis and antibacterial activity of 1,3,4-thiadiazole phenyl oxazolidinone analogues” (Bioorg Med Chem Lett, 2003).
